# Paper PMC8861431, “Tissue Pharmacokinetic Properties and Bystander Potential of Hypoxia-Activated Prodrug CP-506 by Agent-Based Modelling” (Frontiers in Pharmacology, 2022)
# Like-named read-outs stand apart in the source and are kept apart here.
# Legend:
# POR-R MCLs = settings: established value for the internal standard; ref Wilson et al., 2004; cited from earlier work
# [1] = ref Hicks et al., 2007; Foehrenbacher et al., 2013a, 2013b; cited from earlier work
# [2] = ref Guise et al., 2010; cited from earlier work
# [3] = Media stability studies (stirred medium without serum, 37°C); format: physicochemical; settings: for half-life at 100 µM: 37°C, aerobic, medium without serum/cells, read-out: Half-life (T1/2) in stirred medium
# Description: The stability of each compound was determined in stirred medium (without serum) maintained under aerobic conditions by the constant supply of a humidified gas mixture comprised of 21% O2, 5% CO2 with balance N2. Vials were spiked with 100 µM of the relevant compound, and samples were collected using a positive displacement pipettor for up to 3 h thereafter. The collected samples were then treated with two-volumes of ice-cold acetonitrile containing 2 µM of the relevant deuterated (D8) internal standard and stored at −80°C until LC-MS/MS analysis.
# (§1) The LC system for tandem MS consisted of an Agilent 1200 autosampler (4°C) and binary pump, a 3.0 × 50 mm, 1.8-micron Zorbax SB-C18 column (Agilent; PN: 827975-302) and 2.1 × 7 mm guard column (Alltech, IL) maintained at 35°C, at a pressure of <400 bar and flow rate of 0.3 ml/min. The mobile phase comprised a gradient of 0.01% formic acid in 80% acetonitrile - 20% water, v/v (solvent A), and 0.01% formic acid in water (solvent B). Initial mobile phase composition was 20% solvent A and 80% solvent B, increasing to 60% A (0–3 min) then 80% A (3–5.45 min), returning to initial conditions (5.5–6 min). Post-run time was 1 min, and the total run time was […]. Mass spectrometric detection was carried out using an Agilent 6410 triple quadrupole mass spectrometer equipped with a multimode ionization (MMI) source. The mass spectrometer was operated in electrospray positive ionization mode using multiple reaction monitoring (MRM), with Q1 & Q3 set to unit resolution ([…]). The electrospray ionization parameters, optimized for the parent molecular ion ([M+H]+) abundance were: drying gas temperature 325°C, vaporiser temperature 150°C, drying gas flow 5 L/min, nebuliser pressure 50 psi, capillary voltage 1.8 kV, Delta EMV 300 V. Ultra-pure nitrogen was used as collision gas. The divert valve feature of the Agilent 6410 triple quadrupole mass spectrometer was utilised to prevent the eluate from entering the ionisation source chamber during the first 0.5 min of each run. For CP-506 samples, positively charged ions representing the [M+H]+ for CP-506 and CP-506-D8 were collisionally dissociated to form specific product ions which were monitored in MS2 (unit resolution). The MRM transition, ionization mode, collision energy, dwell time, fragmentor voltage and retention time for all compounds is provided in Supplementary Table S2. Agilent MassHunter software (v.4.04.00) was used for data acquisition and chromatographic peak integration.
# HCT-116 cell line panel = assay: Anti-proliferative IC50 assay of authentic CP-506 metabolites; format: cell-based, human
# Description: Cells (700–1,000 per well) were seeded with 100 µl culture medium into 96-well plates and left to attach for 2 h in a humidified 37°C incubator. Compounds were prepared in culture medium and serially diluted (1:3) in the well volume. […] Aerobic experiments were performed under standard tissue culture conditions (21% O2), and the anoxic experiments were performed in parallel in a 5% H2/Pd catalyst anaerobic chamber (Shellab Bactron, Sheldon manufacturing Inc., Cornelius, OR) using pre-equilibrated media and plasticware. All anoxia experiments were conducted using a catalyst-scrubbed anaerobic chamber, unless otherwise specified, with gas oxygen measurements of <1 ppm O2. Cells were then washed three times and left to grow for 96 h before cell density determination using a sulforhodamine B (SRB) assay ([Vichai and Kirtikara, 2006]). To this end, the cells were fixed by layering 50 µl of trichloroacetic acid (40% w/v in MilliQ water) on top of the culture media (150 µl) in each well for 1 h at 4°C. Plates were rinsed under running tap water and stained with 50 µl of SRB (0.4% w/v in MilliQ water containing 1% v/v acetic acid) for 30 min at room temperature. Plates were rapidly destained by rinsing three times in tap water containing 1% (v/v) acetic acid. The stain was solubilized by adding 100 µl of 10 mM unbuffered Tris base to each well with gentle rocking for 1 h. Plates were read on a Biotek ELx808 Absorbance Microplate Reader at 490 nm using KC4 software. The IC50 value (concentration required to reduce staining to 50% of the untreated control on the same plate) for each compound was determined by interpolation using a 4-parameter logistic regression model.
# FIGURE 3 Hypoxia-dependent metabolism of CP-506 leads to the formation of a multitude of short-lived species with variable cytotoxicity. (A) Bioreductive metabolism of CP-506 under normoxic (21% O2) and anoxic conditions (<1 ppm O2). Concentrations of CP-506 and its metabolites (CP-506H, CP-506M and CP-506M-Cl2) were quantified by mass spectrometry with reference to the appropriate deuterated (D8) internal standard. Values are the mean ± SEM for three independent experiments. (B) Stability of CP-506 metabolites in culture medium (without cells) at 37°C. Concentrations were determined by mass spectrometry using standard curves generated from authenticated stocks. […] IC50 values are the mean ± SEM of duplicate wells for three independent experiments. T-tests were performed using GraphPad Prism 8 (ns, p-value > 0.05; *, p-value ≤ 0.05; **, p-value ≤ 0.01; ***, p-value ≤ 0.001).
# [4] = system: HCT-116 cells (PORko-G, HCT-116 WT, POR-R); assay: Cellular metabolism assay (LC-MS/MS of reduced metabolites); format: in vitro ADME, human; settings: anoxic cultures
# Description: Aerobic and anoxic conditions were achieved as described above. Cells (5 x 10^5 per well) were seeded with 350 µl medium in duplicate into 24-well plates and left to attach for 2 h in a humidified 37°C incubator. A working solution of CP-506 was prepared in culture medium to achieve a 100 µM concentration in each well after the addition of a 500 µl volume. Plates were exposed to drug for 1 h in a humidified 37°C incubator. Metabolism was then halted by the addition of two-volumes of ice-cold acetonitrile containing 2 µM of internal standard for each analyte. Samples were stored at −80°C until LC-MS/MS analysis.
# as §1
# [5] = stirred medium without serum or cells
structure (smiles),measurement,setting,value
N[14C](N)=O [[^14C]-urea],DMCL in HCT-116 MCLs,POR-R MCLs,3.67 x 10^−7 cm^2 s^−1
"CS(=O)(=O)OCCN(CCBr)c1c(C(=O)NCCO)cc([N+](=O)[O-])cc1[N+](=O)[O-] [PR-104A, reference compound]",KO2 (O2 concentration of half-maximal activation),[1],0.126 µM O2
same,Safe human exposure levels as percent of those observed in mice,[2],10–29%
"CCN1CCN(C(=O)c2cc(N(CCO)CCO)c(S(C)(=O)=O)cc2N)CC1 [CP-506M-(OH)2, (2-Amino-5-(bis(2-hydroxyethyl)amino)-4-(methylsulfonyl)phenyl)(4-ethylpiperazin-1-yl)methanone]",half-life at 100 µM,[3]; [5],6.56 h
same,Concentration up to which the cell line panel was not sensitive,HCT-116 cell line panel; Figure 3C,> 100 µM
"CCN1CCN(C(=O)c2cc(N(CCO)CCO)c(S(C)(=O)=O)cc2NO)CC1 [CP-506H-(OH)2, (5-(Bis(2-hydroxyethyl)amino)-2-(hydroxyamino)-4-(methylsulfonyl)phenyl)(4-ethylpiperazin-1-yl)methanone]",Detection of metabolite in anoxic cultures,[4],undetectable
same,half-life at 100 µM,[3]; [5],0.0417 h
"CCN1CCN(C(=O)c2cc(N(CCCl)CCCl)c(S(C)(=O)=O)cc2NO)CC1 [CP-506H-Cl2, (5-(Bis(2-chloroethyl)amino)-2-(hydroxyamino)-4-(methylsulfonyl)phenyl)(4-ethylpiperazin-1-yl)methanone]",half-life at 100 µM,[3],2.35 h
same,Fold longer half-life than CP-506H or CP-506M,"[3]; stirred medium, Figure 3B",≥ 10 fold
same,Anti-proliferative IC50 of metabolite,"HCT-116 cell line panel; direct exposure of monolayers to authentic metabolite, Figure 3C: 5 days, normoxic 21% O2",limited potency
